According to patent publication US5066655A (priority 1989, dated 1991):
Blank lines part the entries; values can stand above or below the molecule they belong to.

Key:
[1] = biological target: T1, A2 receptors of human platelets (Homo sapiens, UniProt P29274); assay: Antagonism of NECA-induced stimulation of adenylate cyclase activity of human platelet membranes; assay type: biochemical; conditions: for antagonist potency at platelet A2 receptor: human platelet membranes, NECA-stimulated adenylate cyclase, result in words
T1 sequence (P29274 whole entry): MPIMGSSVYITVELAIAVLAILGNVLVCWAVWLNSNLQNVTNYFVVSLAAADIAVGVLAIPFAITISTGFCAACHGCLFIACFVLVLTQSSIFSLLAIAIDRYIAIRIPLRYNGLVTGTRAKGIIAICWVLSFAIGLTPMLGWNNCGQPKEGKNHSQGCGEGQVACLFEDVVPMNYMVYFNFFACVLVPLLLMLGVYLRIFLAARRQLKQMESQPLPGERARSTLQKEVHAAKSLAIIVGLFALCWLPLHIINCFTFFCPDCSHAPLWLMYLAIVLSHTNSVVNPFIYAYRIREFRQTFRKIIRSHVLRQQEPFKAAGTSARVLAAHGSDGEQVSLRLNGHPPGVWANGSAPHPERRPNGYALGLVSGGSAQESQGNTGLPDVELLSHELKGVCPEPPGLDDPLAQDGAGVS
Experimental: (§1) Human platelet, rat pheochromocytoma (PC12) cell, rat fat cell and rat cerebral cortex membranes were prepared as described (4,5,6). Adenylate cyclase activity and binding [^3 H]PIA to cerebral cortex membranes were determined essentially as described (4,5,6). KB values for the compounds were determined as described (4). […] EC50 and IC50 values for the agonists were obtained from the concentration-response curves by linear regression after logit-log transformation. KB values of the antagonists were calculated using the Schild equation KB =C/(CR-1), where C denotes the concentration of the competitor and CR the ratio of the EC50 and IC50 values in the presence and absence, respectively, of the competitor. IC50 of the compounds for inhibition of [^3 H]PIA binding to cerebral cortex membranes were transformed into Ki values as described (6).
In these cells, A2 receptor-mediated stimulation of adenylate cyclase results in an inhibition of aggregation (5,7).

[2] = test system: adenosine receptor in human fibroblast cell line; conditions: cited from earlier work
[3] = biological target: T2, A1 receptors of rat fat cells (Rattus norvegicus, UniProt P25099); assay: Antagonism of R-PIA-induced inhibition of rat fat cell adenylate cyclase activity; assay type: biochemical; conditions: rat fat cell membranes, result in words
T2 sequence (P25099 1-326): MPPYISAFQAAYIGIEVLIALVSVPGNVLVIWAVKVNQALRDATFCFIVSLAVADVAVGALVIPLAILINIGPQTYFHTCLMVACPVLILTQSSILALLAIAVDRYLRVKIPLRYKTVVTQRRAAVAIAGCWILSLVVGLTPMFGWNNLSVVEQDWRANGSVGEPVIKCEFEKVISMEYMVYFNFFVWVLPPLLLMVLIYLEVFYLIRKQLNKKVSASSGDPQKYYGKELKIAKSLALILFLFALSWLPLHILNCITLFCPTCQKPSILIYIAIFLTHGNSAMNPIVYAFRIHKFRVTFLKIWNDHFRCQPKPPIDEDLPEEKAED
Experimental: as §1

[4] = test system: A2 receptors of PC12 cells; conditions: cited from earlier work
[5] = biological target: T1, A2 receptors of human platelets; conditions: cited from earlier work
A1 adenosine receptors = conditions: literature; cited from earlier work
[6] = test system: A1 and A2 adenosine receptors; assay: Activity at adenosine receptors, A1 versus A2 selectivity (overall); assay type: biochemical; conditions: in words
Experimental: as §1

A1 receptors = biological target: T3, A1 receptors (Rattus norvegicus, UniProt P25099); assay: Activity at A1 adenosine receptors (overall, fat cells and brain membranes); assay type: biochemical; conditions: discussion, fat cell and brain data
T3 sequence (P25099 1-326): T2 sequence (P25099 1-326)
Experimental: as §1

[7] = test system: A2 adenosine receptor (guinea pig taenia caecum); assay: Antagonism of adenosine agonists in isolated guinea pig taenia caecum (contractile tone)
Experimental: Taenia from the guinea pig caecum were cut into lengths of 1.5-2 cm. The tissues were suspended in a 20 ml organ bath containing de Jalon's solution that was gassed with 95% O2 + 5% CO2 and maintained at 31° C. The resting tension was 1.5 g. The contractile response was measured isotonically.
(§2) The ability of the compounds to antagonize the effects of agonists was analyzed using modified Schild plots.

[8] = biological target: T4, A1 receptors of rat cerebral cortex membranes (Rattus norvegicus, UniProt P25099); assay: Inhibition of [3H]PIA binding to rat cerebral cortex membranes
T4 sequence (P25099 1-326): T2 sequence (P25099 1-326)
Experimental: as §1

[9] = biological target: T5, A1 adenosine receptor (guinea pig atrium) (Cavia porcellus, UniProt P47745); assay: Antagonism of adenosine agonists in isolated guinea pig left atrium (force of contraction); conditions: guinea pig atria, result in words
T5 construct: The left atria from male guinea pigs were isolated; from tissue; host or cells: left atria of male guinea pigs
T5 sequence (P47745 1-326): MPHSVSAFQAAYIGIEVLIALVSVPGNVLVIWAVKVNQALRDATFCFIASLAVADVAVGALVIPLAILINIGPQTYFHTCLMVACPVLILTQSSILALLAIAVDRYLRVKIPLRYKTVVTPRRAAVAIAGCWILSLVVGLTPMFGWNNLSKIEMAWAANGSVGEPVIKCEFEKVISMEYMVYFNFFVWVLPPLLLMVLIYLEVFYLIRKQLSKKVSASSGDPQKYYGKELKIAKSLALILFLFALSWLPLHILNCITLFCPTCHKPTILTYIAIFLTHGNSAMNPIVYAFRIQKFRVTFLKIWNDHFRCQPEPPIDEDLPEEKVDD
Experimental: The left atria from male guinea pigs were isolated, suspended between two punctate electrodes, and placed in a 20 ml organ bath that contained Krebs-Hensileit solution that was continuously gassed with 95% O2 + 5% CO2 and maintained at 31° C. The resting tension was one gram. Theatria were stimulated electrically at 1 hz, 1 ms duration pulses at supramaximal voltage. The force of contraction was recorded isometrically.
as §2

[10] = test system: A2 receptors of rat pheochromocytoma (PC12) cells; assay: Antagonism of NECA-induced stimulation of adenylate cyclase activity of PC12 cell membranes; assay type: biochemical; conditions: NECA-stimulated adenylate cyclase, result in words
Experimental: as §1

A2 receptors = conditions: literature; cited from earlier work
coronary A2 receptors = conditions: cited from earlier work

SMILES: Cn1cnc2c(N)ncnc21 [Example 2, 9-Methyladenine, reference compound]
antagonist potency at platelet A2 receptor [1]: more potent than the adenine itself
potency increase by methylation of adenine at the 9-position ([2]; relative to adenine): about 4 fold
antagonist potency at A1 receptors of fat cells [3]: antagonizes the effect of R-PIA

SMILES: OC[C@H]1O[C@@H](n2cnc3c(NC4CCC4)ncnc32)[C@H](O)[C@@H]1O [N^6 -cyclobutyl-]
agonist potency at PC12 A2 receptors, in words [4]: more potent of the series
agonist potency at platelet A2 receptors, in words [5]: more potent of the N^6 -substituted adenosines

SMILES: C[C@H](Cc1ccccc1)Nc1ncnc2c1ncn2[C@@H]1O[C@H](CO)[C@@H](O)[C@H]1O [R-PIA, N^6 -R-1-phenyl-2-propyladenosine]
agonist potency at PC12 A2 receptors, in words [4]: more potent of the series
agonist potency at platelet A2 receptors, in words [5]: more potent of the N^6 -substituted adenosines
affinity/activity at A1 receptors, in words (A1 adenosine receptors): very high affinity for A1 adenosine receptors

potency at adenosine receptors (subtype not stated) [6]: more potent than 9-methyladenine
receptor selectivity A1 versus A2 ([6]; listed as N^6 -Cyclopentyl): selective for A1 receptors
receptor selectivity A1 versus A2 ([6]; listed as cyclopentyl-): selective for receptors
antagonist potency at platelet A2 receptor [1]: more potent than 9-methyladenine itself
inhibition of [3H]PIA binding (Ki), in words [8]: more potent
antagonism of adenosine agonists in atria [9]: competitive antagonists
SMILES: Cn1cnc2c(NC3CCCC3)ncnc21 [Example 4, N^6 -Cyclopentyl-9-MA]
potency at platelet A2 receptor relative to PC12 A2 receptor ([1]; human platelets versus rat PC12 cells): more potent at the platelet A2 receptor than at the PC12 A2 receptor
activity at A1 receptors, in words (A1 receptors): most potent of N^6 -substituted 9-methyladenines at A1 receptors
antagonism of adenosine agonists in taenia caecum ([7]; guinea pig taenia caecum relaxation): did not competitively antagonize the effects of adenosine agonists
sensitization of the tissue ([7]; guinea pig taenia caecum, high concentrations): some sensitization of the tissue
antagonist potency at A1 receptors of fat cells [3]: more potent than the parent compound 9-methyladenine

antagonist potency at platelet A2 receptor [1]: very weak antagonist
SMILES: Nc1ncnc2nc[nH]c12 [Example 1, Adenine, reference compound]
effect on basal adenylate cyclase activity ([1]; human platelets, data not shown): does not affect basal adenylate cyclase activity
specific, competitive antagonism of cyclic AMP accumulation ([2]; adenosine-induced, human fibroblast cell line): specific, competitive antagonist
Ki ([2]; competitive antagonism of adenosine-induced cyclic AMP accumulation, human fibroblast cell line): 200 µM
antagonist potency at A1 receptors of fat cells [3]: does not affect R-PIA-induced inhibition of fat cell adenylate cyclase activity
antagonist potency at A2 receptor of PC12 cells [10]: very weak antagonist

SMILES: CCNC(=O)[C@H]1O[C@@H](n2cnc3c(N)ncnc32)[C@H](O)[C@@H]1O [NECA, 5'-N-ethylcarboxamido-adenosine]
potency at A2 receptors, in words (A2 receptors): more potent than N^6 -substituted analogs at A2 receptors

SMILES: OC[C@H]1O[C@@H](n2cnc3c(Oc4ccccc4)ncnc32)[C@H](O)[C@@H]1O [6-phenoxypurine riboside]
activity at coronary A2 receptors (coronary A2 receptors): inactive or nearly so

SMILES: OC[C@H]1O[C@@H](n2cnc3c(NCc4ccccc4)ncnc32)[C@H](O)[C@@H]1O [N^6 -benzyladenosine]
agonist potency at platelet A2 receptors, in words [5]: more potent of the N^6 -substituted adenosines
affinity/activity at A1 receptors, in words (A1 adenosine receptors): low activity

receptor selectivity A1 versus A2 [6]: selective for receptors
activity at A1 receptors, in words (A1 receptors): reduces activity at A1 receptors
antagonist potency at A1 receptors of fat cells [3]: less potent
SMILES: Cn1cnc2c(NC3(C)CCCC3)ncnc21 [Example 5, N^6 -Methylcyclopentyl-9-MA]
antagonist potency at platelet A2 receptor [1]: less potent than the parent cyclopentyl analog
antagonist potency at A2 receptor of PC12 cells [10]: reduces potency in PC12 cells

SMILES: OC[C@H]1O[C@@H](n2cnc3c(NCCc4ccsc4)ncnc32)[C@H](O)[C@@H]1O [N^6-2-(3-thienylethyl)-]
agonist potency at platelet A2 receptors, in words [5]: more potent of the N^6 -substituted adenosines
